The source of these data is patent US10766903B2 (ALMAC DISCOVERY LIMITED, priority 2016, dated 2020).

As usually defined, the IC50 is the midpoint of a concentration-inhibition curve.

The structures appear in SMILES notation. Structures can show the parent of a compound that is named as a salt.

Sequence of USP7 (Q93009 whole entry): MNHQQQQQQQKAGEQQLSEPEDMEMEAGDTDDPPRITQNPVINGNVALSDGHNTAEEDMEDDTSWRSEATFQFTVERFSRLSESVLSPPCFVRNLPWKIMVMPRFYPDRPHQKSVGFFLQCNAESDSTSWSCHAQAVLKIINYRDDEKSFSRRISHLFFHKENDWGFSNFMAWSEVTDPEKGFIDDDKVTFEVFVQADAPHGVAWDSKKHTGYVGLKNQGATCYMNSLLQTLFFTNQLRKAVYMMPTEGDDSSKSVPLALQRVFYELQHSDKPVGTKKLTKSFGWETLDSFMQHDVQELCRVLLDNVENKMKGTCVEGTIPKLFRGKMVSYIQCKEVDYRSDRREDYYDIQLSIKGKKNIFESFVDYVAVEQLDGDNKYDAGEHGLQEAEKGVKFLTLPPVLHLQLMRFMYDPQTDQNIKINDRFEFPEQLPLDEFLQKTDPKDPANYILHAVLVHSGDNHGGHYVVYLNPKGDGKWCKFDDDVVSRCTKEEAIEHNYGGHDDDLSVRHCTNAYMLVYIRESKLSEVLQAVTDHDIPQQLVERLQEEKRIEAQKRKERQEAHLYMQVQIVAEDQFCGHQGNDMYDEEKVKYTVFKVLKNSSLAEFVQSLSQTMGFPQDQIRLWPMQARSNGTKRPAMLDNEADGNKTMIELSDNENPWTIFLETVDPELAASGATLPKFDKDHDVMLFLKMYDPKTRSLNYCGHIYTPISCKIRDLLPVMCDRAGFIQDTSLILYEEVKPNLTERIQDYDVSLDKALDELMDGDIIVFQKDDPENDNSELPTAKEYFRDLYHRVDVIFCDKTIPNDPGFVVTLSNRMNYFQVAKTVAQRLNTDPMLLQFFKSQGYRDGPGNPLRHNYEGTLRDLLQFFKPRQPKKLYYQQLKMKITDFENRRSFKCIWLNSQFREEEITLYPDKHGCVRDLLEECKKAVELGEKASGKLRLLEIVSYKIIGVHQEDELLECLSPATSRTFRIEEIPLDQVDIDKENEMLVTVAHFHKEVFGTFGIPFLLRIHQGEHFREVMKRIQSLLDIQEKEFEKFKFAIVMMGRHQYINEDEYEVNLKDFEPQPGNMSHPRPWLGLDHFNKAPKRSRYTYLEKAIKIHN

The first assay concerns the target USP7 (Homo sapiens (Human), UniProt Q93009). Nature of the assay: USP7 fluorescence polarisation (FP) biochemical assay, ubiquitin-Lys-TAMRA substrate. The settings on record: Table 4, biochemical assay; average of at least duplicate experiments; read-out: USP7 IC50. The method in brief:
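Full-length His6-USP7 (2.5 nM) incubated ± inhibitor (8-point dilutions, 200 to 0.1 μM before addition) in 50 mM HEPES pH 7.2, 150 mM NaCl, 0.5 mM EDTA, 5 mM DTT, 0.05% BSA, 0.05% CHAPS. Ubiquitin-Lys-TAMRA cleavage followed by FP (ex 530/em 575 nm) every 15 min for 1.5 h; normalised to no-compound control.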
(In general: Polarisation of emitted light reports the rotation of a fluorescent probe.)
Turning to `C[C@H](CC(=O)N1CCC(O)(Cn2cnc(NCc3ccnn3C)cc2=O)CC1)c1ccccc1` [Example 154, (R)-3-((4-hydroxy-1-(3-phenylbutanoyl)piperidin-4-yl)methyl)-6-(((1-methyl-1H-pyrazol-5-yl)methyl)amino)pyrimidin-4(3H)-one], the 50% inhibitory concentration (IC50) lay within 1000 to 200000 nM. With `C[C@H](CC(=O)N1CCC(O)(Cn2cnc(NCCN3CCC[C@@H]3C)cc2=O)CC1)c1ccccc1` [Example 69, 3-((4-Hydroxy-1-((R)-3-phenylbutanoyl)piperidin-4-yl)methyl)-6-((2-((S)-2-methylpyrrolidin-1-yl)ethyl)amino)pyrimidin-4(3H)-one, Formic Acid], the IC50 was less than 250 nM. The same measure, in the same setting: under `C[C@@H](N)c1ccc(-c2c3ncn(CC4(O)CCN(C(=O)C[C@H](c5ccccc5)C(F)(F)F)CC4)c(=O)c3nn2C)cc1` [Example 75, 3-(4-((R)-1-Aminoethyl)phenyl)-6-((4-hydroxy-1-((R)-4,4,4-trifluoro-3-phenylbutanoyl)piperidin-4-yl)methyl)-2-methyl-2H-pyrazolo[4,3-d]pyrimidin-7(6H)-one] stands less than 250 nM. The same measure, in the same setting: under `COc1cc(=O)n(CC2(O)CCN(C(=O)C[C@@H](C)c3ccccc3)CC2)cn1` [Example 9, (R)-3-((4-Hydroxy-1-(3-phenylbutanoyl)piperidin-4-yl)methyl)-6-methoxypyrimidin-4(3H)-one] stands 1000 to 200000 nM; under `C[C@H](CC(=O)N1CCC(O)(Cn2cnc(-c3cncnc3)cc2=O)CC1)c1ccccc1` [Example 102], 1000 to 200000 nM; under `C[C@H](CC(=O)N1CCC(O)(C(O)c2cnc3c(-c4ccccc4)cccn3c2=O)CC1)c1ccccc1` (stereo partly drawn) [Example 105, 3-(Hydroxy(4-hydroxy-1-((R)-3-phenylbutanoyl)piperidin-4-yl)methyl)-9-phenyl-4H-pyrido[1,2-a]pyrimidin-4-one], 1000 to 200000 nM. As to `C[C@H](CC(=O)N1CCC(O)(Cn2cnc(NCCN3CCCC3)c(Br)c2=O)CC1)c1ccccc1` [Example 45, (R)-5-Bromo-3-((4-hydroxy-1-(3-phenylbutanoyl)piperidin-4-yl)methyl)-6-((2-(pyrrolidin-1-yl)ethyl)amino)pyrimidin-4(3H)-one], the IC50 is 1000 to 200000 nM. Take `Cn1nc2c(=O)n(CC3(O)CCN(C(=O)C4(C)CC4)CC3)cnc2c1-c1ccccc1` [Example 191, 6-((4-Hydroxy-1-(1-methylcyclopropanecarbonyl)piperidin-4-yl)methyl)-2-methyl-3-phenyl-2H-pyrazolo[4,3-d]pyrimidin-7(6H)-one]: the IC50 was 1000 to 200000 nM. As for `C[C@H](CC(=O)N1CCC(O)(Cn2cnc(N(C)CCO)cc2=O)CC1)c1ccccc1` [Example 166, (R)-3-((4-hydroxy-1-(3-phenylbutanoyl)piperidin-4-yl)methyl)-6-((2-hydroxyethyl)(methyl)amino)pyrimidin-4(3H)-one], the concentration for half-maximal inhibition (IC50) lay within 1000 to 200000 nM.

`C[C@H](CC(=O)N1CCC(O)(Cn2cnc(N3CC4(CCC4(F)F)C3)cc2=O)CC1)c1ccccc1` [Example 173, (R)-6-(5,5-difluoro-2-azaspiro[3.3]heptan-2-yl)-3-((4-hydroxy-1-(3-phenylbutanoyl)piperidin-4-yl)methyl)pyrimidin-4(3H)-one]: the IC50 lay within 1000 to 200000 nM. Take `CC1(C(=O)N2CCC(O)(Cn3cnc4c(cc(Cl)n4-c4ccc(C5CC5)cc4)c3=O)CC2)CC1` [Example 220, 6-Chloro-7-(4-cyclopropylphenyl)-3-((4-hydroxy-1-(1-methylcyclopropanecarbonyl)piperidin-4-yl)methyl)-3H-pyrrolo[2,3-d]pyrimidin-4(7H)-one]: the IC50 was less than 250 nM.

Take `C[C@H](CC(=O)N1CCC(O)(Cn2cnc(N)cc2=O)CC1)c1ccccc1` [Example 5, (R)-6-Amino-3-((4-hydroxy-1-(3-phenylbutanoyl)piperidin-4-yl)methyl)pyrimidin-4(3H)-one]: the IC50 fell in the range of 1000 to 200000 nM. Regarding `C[C@H](CC(=O)N1CCC(O)(Cn2cnc(N3CC[C@H](N)C3)cc2=O)CC1)c1ccccc1` [Example 12, 6-((S)-3-Aminopyrrolidin-1-yl)-3-((4-hydroxy-1-((R)-3-phenylbutanoyl)piperidin-4-yl)methyl)pyrimidin-4(3H)-one], the half-inhibitory concentration (IC50) was less than 250 nM. Take `C[C@H](CC(=O)N1CCC(O)(Cn2cnc3c(C#CCO)n(C)nc3c2=O)CC1)c1ccccc1` [Example 31, (R)-6-((4-Hydroxy-1-(3-phenylbutanoyl)piperidin-4-yl)methyl)-3-(3-hydroxyprop-1-yn-1-yl)-2-methyl-2H-pyrazolo[4,3-d]pyrimidin-7(6H)-one]: the IC50 was less than 250 nM.

As to `CC1(C(=O)N2CCC(O)(Cn3cnc4c(nnn4-c4ccccc4)c3=O)CC2)CC1` [Example 197, 6-((4-Hydroxy-1-(1-methylcyclopropanecarbonyl)piperidin-4-yl)methyl)-3-phenyl-3H-[1,2,3]triazolo[4,5-d]pyrimidin-7(6H)-one], the IC50 fell in the range of 1000 to 200000 nM.

In the case of `C[C@H](CC(=O)N1CCC(O)(Cn2cnc(NC3CCCC[C@H]3N)cc2=O)CC1)c1ccccc1` (mixture of isomers) [Example 63, rac-6-(((±-trans-1,2)-2-Aminocyclohexyl)amino)-3-((4-hydroxy-1-((R)-3-phenylbutanoyl)piperidin-4-yl)methyl)pyrimidin-4(3H)-one, Formic Acid], the IC50 lay within 250 to 999 nM. On the same count and under the same terms, under `C=C(C)[C@@H](CC(=O)N1CCC(O)(Cn2cnc3c(-c4ccccc4)n(C)nc3c2=O)CC1)C(F)(F)F` [Example 36, (R)-6-((4-Hydroxy-1-(4-methyl-3-(trifluoromethyl)pent-4-enoyl)piperidin-4-yl)methyl)-2-methyl-3-phenyl-2H-pyrazolo[4,3-d]pyrimidin-7(6H)-one] stands 1000 to 200000 nM; under `C[C@H](CC(=O)N1CCC(O)(CN2C(=O)Cc3ccccc32)CC1)c1ccccc1` [Example 126, (R)-1-((4-Hydroxy-1-(3-phenylbutanoyl)piperidin-4-yl)methyl)indolin-2-one], 1000 to 200000 nM; under `O=C(c1cnc(C2CC2)o1)N1CCC(O)(Cn2cnc3c(cc(I)n3-c3ccccc3)c2=O)CC1` [Example 224, 3-((1-(2-Cyclopropyloxazole-5-carbonyl)-4-hydroxypiperidin-4-yl)methyl)-6-iodo-7-phenyl-3H-pyrrolo[2,3-d]pyrimidin-4(7H)-one], less than 250 nM.

In the case of `NCc1ccc(-n2c(Cl)cc3c(=O)n(CC4(O)CCN(C(=O)c5cnc(C6CC6)o5)CC4)cnc32)cc1` [Example 242, 7-(4-(Aminomethyl)phenyl)-6-chloro-3-((1-(2-cyclopropyloxazole-5-carbonyl)-4-hydroxypiperidin-4-yl)methyl)-3,7-dihydro-4H-pyrrolo[2,3-d]pyrimidin-4-one], the IC50 was less than 250 nM. The same measure, in the same setting: under `O=C(c1cnc(C2CC2)o1)N1CCC(O)(Cn2cnc3c(nnn3-c3ccccc3)c2=O)CC1` [Example 198, 6-((1-(2-Cyclopropyloxazole-5-carbonyl)-4-hydroxypiperidin-4-yl)methyl)-3-phenyl-3H-[1,2,3]triazolo[4,5-d]pyrimidin-7(6H)-one] stands 1000 to 200000 nM. Still for that read-out and setting: in the case of `C[C@H](CC(=O)N1CCC(O)(Cn2cnc3c(-c4ccncc4)n(C)nc3c2=O)CC1)c1ccccc1` [Example 26, (R)-6-((4-Hydroxy-1-(3-phenylbutanoyl)piperidin-4-yl)methyl)-2-methyl-3-(pyridin-4-yl)-2H-pyrazolo[4,3-d]pyrimidin-7(6H)-one] it was 250 to 999 nM; in that of `Cn1nccc1-c1cc(-n2c(Cl)cc3c(=O)n(CC4(O)CCN(C(=O)C5(C)CC5)CC4)cnc32)ccc1F` [Example 231, 6-Chloro-7-(4-fluoro-3-(1-methyl-1H-pyrazol-5-yl)phenyl)-3-((4-hydroxy-1-(1-methylcyclopropanecarbonyl)piperidin-4-yl)methyl)-3H-pyrrolo[2,3-d]pyrimidin-4(7H)-one], 250 to 999 nM; in that of `C[C@H](CC(=O)N1CCC(O)(Cn2cnc(NCC3CCOCC3)cc2=O)CC1)c1ccccc1` [Example 163, (R)-3-((4-hydroxy-1-(3-phenylbutanoyl)piperidin-4-yl)methyl)-6-(((tetrahydro-2H-pyran-4-yl)methyl)amino)pyrimidin-4(3H)-one], 1000 to 200000 nM.

The same assay, now with this note: USP7 IC50, Table 4, biochemical assay; average of at least duplicate experiments.
As for `C[C@H](CC(=O)N1CCC(O)(Cn2cnc(N3CC4(CCOC4)C3)cc2=O)CC1)c1ccccc1` [Example 176, (R)-3-((4-hydroxy-1-(3-phenylbutanoyl)piperidin-4-yl)methyl)-6-(6-oxa-2-azaspiro[3.4]octan-2-yl)pyrimidin-4(3H)-one], the IC50 lay within 250 to 999 nM. Still for that read-out and setting: under `C[C@H](CC(=O)N1CCC(O)(Cn2cnc(NCCN3CC[C@H](F)C3)cc2=O)CC1)c1ccccc1` [Example 74, 6-((2-((S)-3-Fluoropyrrolidin-1-yl)ethyl)amino)-3-((4-hydroxy-1-((R)-3-phenylbutanoyl)piperidin-4-yl)methyl)pyrimidin-4(3H)-one, Formic Acid] stands 250 to 999 nM; under `C[C@H](CC(=O)N1CCC(O)(Cn2cnc(N3CCC[C@H](N)C3)cc2=O)CC1)c1ccccc1` [Example 47, 6-((S)-3-Aminopiperidin-1-yl)-3-((4-hydroxy-1-((R)-3-phenylbutanoyl)piperidin-4-yl)methyl)pyrimidin-4(3H)-one hydrochloride], 250 to 999 nM; under `C[C@H](CC(=O)N1CCC(O)(Cn2cnc(N3CCC4(COC4)C3)cc2=O)CC1)c1ccccc1` [Example 179, (R)-3-((4-hydroxy-1-(3-phenylbutanoyl)piperidin-4-yl)methyl)-6-(2-oxa-6-azaspiro[3.4]octan-6-yl)pyrimidin-4(3H)-one], 250 to 999 nM. The same measure, in the same setting: in the case of `CC(C)NCCNc1cc(=O)n(CC2(O)CCN(C(=O)C[C@@H](C)c3ccccc3)CC2)cn1` [Example 142, (R)-3-((4-hydroxy-1-(3-phenylbutanoyl)piperidin-4-yl)methyl)-6-((2-(isopropylamino)ethyl)amino)pyrimidin-4(3H)-one] it was 250 to 999 nM.
